Values joined by “and” are separate entries in the source; they are usually repeats but may differ in a detail not shown here. Equal values may be shown once.
Settings: Coaxial cylinder method

CCCCC [pentane]
Settings	thermal conductivity
331.2 K, 49500 kPa, Liquid	0.1283 W/m/K
331.2 K, 50000 kPa, Liquid	0.1278 W/m/K
386 K, 5061 kPa, Liquid	0.09007 W/m/K
386 K, 10175 kPa, Liquid	0.09446 W/m/K
386 K, 18875 kPa, Liquid	0.0996 W/m/K
386 K, 20275 kPa, Liquid	0.1023 W/m/K
386 K, 30275 kPa, Liquid	0.1082 W/m/K
386 K, 34475 kPa, Liquid	0.1107 W/m/K
386 K, 40275 kPa, Liquid	0.1122 W/m/K
386 K, 49975 kPa, Liquid	0.1184 W/m/K
386 K, 53475 kPa, Liquid	0.1203 W/m/K
387.83 K, 75 kPa, Gas	0.02437 W/m/K
387.83 K, 100 kPa, Gas	0.02484 W/m/K
399.6 K, 2900 kPa, Liquid	0.08457 W/m/K
399.6 K, 3000 kPa, Liquid	0.08493 W/m/K
399.6 K, 4000 kPa, Liquid	0.08522 W/m/K
399.6 K, 4500 kPa, Liquid	0.08602 W/m/K
399.6 K, 5000 kPa, Liquid	0.0869 W/m/K
399.6 K, 6000 kPa, Liquid	0.088 W/m/K
399.6 K, 7000 kPa, Liquid	0.08901 W/m/K
399.6 K, 7500 kPa, Liquid	0.08952 W/m/K
399.6 K, 8000 kPa, Liquid	0.0899 W/m/K
399.6 K, 9500 kPa, Liquid	0.09127 W/m/K
399.6 K, 10000 kPa, Liquid	0.09171 W/m/K
399.6 K, 11000 kPa, Liquid	0.09237 W/m/K
399.6 K, 12000 kPa, Liquid	0.09323 W/m/K
399.6 K, 13000 kPa, Liquid	0.09372 W/m/K
399.6 K, 14000 kPa, Liquid	0.09464 W/m/K
399.6 K, 15000 kPa, Liquid	0.09518 W/m/K
399.6 K, 16000 kPa, Liquid	0.09601 W/m/K
399.6 K, 17000 kPa, Liquid	0.09671 W/m/K
399.6 K, 18000 kPa, Liquid	0.09742 W/m/K
399.6 K, 19000 kPa, Liquid	0.09836 W/m/K
399.6 K, 20000 kPa, Liquid	0.0989 W/m/K
399.6 K, 21000 kPa, Liquid	0.09955 W/m/K
399.6 K, 22000 kPa, Liquid	0.1001 W/m/K
399.6 K, 23500 kPa, Liquid	0.1011 W/m/K
399.6 K, 25000 kPa, Liquid	0.1022 W/m/K
399.6 K, 26000 kPa, Liquid	0.1026 W/m/K
399.6 K, 27000 kPa, Liquid	0.1031 W/m/K
399.6 K, 28000 kPa, Liquid	0.1037 W/m/K
399.6 K, 29000 kPa, Liquid	0.1047 W/m/K
399.6 K, 30000 kPa, Liquid	0.1051 W/m/K
399.6 K, 31000 kPa, Liquid	0.1056 W/m/K
399.6 K, 33000 kPa, Liquid	0.1066 W/m/K
399.6 K, 34000 kPa, Liquid	0.1071 W/m/K
399.6 K, 35000 kPa, Liquid	0.1076 W/m/K
399.6 K, 35301 kPa, Liquid	0.1079 W/m/K
421.85 K, 100 kPa, Gas	0.02874 W/m/K and 0.02895 W/m/K
421.85 K, 1640 kPa, Liquid	0.07566 W/m/K
421.85 K, 1650 kPa, Liquid	0.07566 W/m/K
421.85 K, 1660 kPa, Liquid	0.07566 W/m/K
421.85 K, 1680 kPa, Liquid	0.07566 W/m/K
421.85 K, 1700 kPa, Liquid	0.07566 W/m/K
421.85 K, 1710 kPa, Liquid	0.07566 W/m/K
421.85 K, 1720 kPa, Liquid	0.07566 W/m/K
421.85 K, 1730 kPa, Liquid	0.07596 W/m/K
421.85 K, 1750 kPa, Liquid	0.07566 W/m/K
421.85 K, 1764 kPa, Liquid	0.07568 W/m/K
421.85 K, 1772 kPa, Liquid	0.07584 W/m/K
421.85 K, 1910 kPa, Liquid	0.07624 W/m/K
421.85 K, 1946 kPa, Liquid	0.0762 W/m/K
421.85 K, 1954 kPa, Liquid	0.07621 W/m/K
422.2 K, 2518 kPa, Liquid	0.07714 W/m/K
422.2 K, 5041 kPa, Liquid	0.08091 W/m/K
422.2 K, 10475 kPa, Liquid	0.08676 W/m/K
422.2 K, 18675 kPa, Liquid	0.09347 W/m/K
422.2 K, 18775 kPa, Liquid	0.09348 W/m/K
422.2 K, 20475 kPa, Liquid	0.09413 W/m/K
422.2 K, 30575 kPa, Liquid	0.1002 W/m/K
422.2 K, 30675 kPa, Liquid	0.1007 W/m/K
422.2 K, 40275 kPa, Liquid	0.1061 W/m/K
422.2 K, 48075 kPa, Liquid	0.1104 W/m/K
422.2 K, 52975 kPa, Liquid	0.1123 W/m/K
425.73 K, 100 kPa, Gas	0.02926 W/m/K
425.74 K, 1560 kPa, Gas	0.0319 W/m/K
425.8 K, 100 kPa, Gas	0.0294 W/m/K
425.82 K, 100 kPa, Gas	0.02926 W/m/K
426.24 K, 100 kPa, Gas	0.02935 W/m/K
426.25 K, 100 kPa, Gas	0.02935 W/m/K
426.25 K, 1210 kPa, Gas	0.0316 W/m/K
426.25 K, 1280 kPa, Gas	0.03151 W/m/K

Reference: the NIST ThermoML archive (doi:10.1016/j.fluid.2017.12.026)
